According to patent publication US9963445B2, “Chemical compounds” (SYNGENTA PARTICIPATIONS AG, priority 2013, dated 2018):

Experiments:
Type in all cases: in vivo
Abutilon theophrasti [1] = experiment: Pre-emergence herbicidal activity, glasshouse pot test; conditions: pre-emergence spray, rate 1000 g/ha, evaluated after 13 days, scale 0-5
Method in brief: (§1)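 Damage was rated at 13 days from 0 (none) to 5 (total), in a glasshouse kept at 24/16 °C, 14 h light and 65% humidity with watering twice daily. The aqueous spray of active ingredient in 50:50 acetone/water plus 0.5% Tween 20 was applied to soil one day post-sowing, before emergence.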

Alopecurus myosuroides [2] = experiment: as above; conditions: pre-emergence spray, rate 1000 g/ha, evaluated after 13 days, scale 0-5
Method in brief: as §1

Amaranthus retroflexus [3] = experiment: as above; conditions: pre-emergence spray, rate 1000 g/ha, evaluated after 13 days, scale 0-5
Method in brief: as §1

Echinochloa crus-galli [4] = experiment: as above; conditions: pre-emergence spray, rate 1000 g/ha, evaluated after 13 days, scale 0-5
Method in brief: as §1

Setaria faberi [5] = experiment: as above; conditions: pre-emergence spray, rate 1000 g/ha, evaluated after 13 days, scale 0-5
Method in brief: as §1

zea mays [6] = experiment: as above; conditions: pre-emergence spray, rate 1000 g/ha, evaluated after 13 days, scale 0-5
Method in brief: as §1

Abutilon theophrasti [7] = experiment: Post-emergence herbicidal activity, glasshouse pot test; parameters: key: 0 = no damage to plant, 5 = total damage to plant; conditions: Application post-emergence, rate 1000 g/ha, evaluated after 13 days
Method in brief: (§2)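 Damage rated 0 (none) to 5 (total) 13 days after spraying. Plants were treated post-emergence at 8 days after sowing, using an acetone/water (50:50) formulation with 0.5% Tween 20 diluted to an aqueous spray.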

Alopecurus myosuroides [8] = experiment: as above; parameters: key: 0 = no damage to plant, 5 = total damage to plant; conditions: Application post-emergence, rate 1000 g/ha, evaluated after 13 days
Method in brief: as §2

Amaranthus retroflexus [9] = experiment: as above; parameters: key: 0 = no damage to plant, 5 = total damage to plant; conditions: Application post-emergence, rate 1000 g/ha, evaluated after 13 days
Method in brief: as §2

Echinochloa crus-galli [10] = experiment: as above; parameters: key: 0 = no damage to plant, 5 = total damage to plant; conditions: Application post-emergence, rate 1000 g/ha, evaluated after 13 days
Method in brief: as §2

Setaria faberi [11] = experiment: as above; parameters: key: 0 = no damage to plant, 5 = total damage to plant; conditions: Application post-emergence, rate 1000 g/ha, evaluated after 13 days
Method in brief: as §2

zea mays [12] = experiment: as above; parameters: key: 0 = no damage to plant, 5 = total damage to plant; conditions: Application post-emergence, rate 1000 g/ha, evaluated after 13 days
Method in brief: as §2

## CC1=C(Cl)C(=O)N(c2ccc(C#N)nn2)C1O (stereo not drawn) [BF14]
Abutilon theophrasti [1]
  ABUTH damage score, application pre-emergence: 5
Alopecurus myosuroides [2]
  ALOMY damage score, application pre-emergence: 1
Amaranthus retroflexus [3]
  AMARE damage score, application pre-emergence: 4
Echinochloa crus-galli [4]
  ECHCG damage score, application pre-emergence: 2
Setaria faberi [5]
  SETFA damage score, application pre-emergence: 0
Zea mays [6]
  ZEAMX damage score, application pre-emergence: 0
Abutilon theophrasti [7]
  ABUTH herbicidal damage score: 1
Alopecurus myosuroides [8]
  ALOMY herbicidal damage score: 2
Amaranthus retroflexus [9]
  AMARE herbicidal damage score: 2
Echinochloa crus-galli [10]
  ECHCG herbicidal damage score: 2
Setaria faberi [11]
  SETFA herbicidal damage score: 3
Zea mays [12]
  ZEAMX herbicidal damage score: 1

## COC1=C(C)C(O)N(c2cc(C)c(OC)nn2)C1=O (stereo not drawn) [BG1]
Abutilon theophrasti [1]
  ABUTH damage score, application pre-emergence: 2
Alopecurus myosuroides [2]
  ALOMY damage score, application pre-emergence: 3
Amaranthus retroflexus [3]
  AMARE damage score, application pre-emergence: 5
Echinochloa crus-galli [4]
  ECHCG damage score, application pre-emergence: 4
Setaria faberi [5]
  SETFA damage score, application pre-emergence: 2
Zea mays [6]
  ZEAMX damage score, application pre-emergence: 1
Abutilon theophrasti [7]
  ABUTH herbicidal damage score: 5
Alopecurus myosuroides [8]
  ALOMY herbicidal damage score: 4
Amaranthus retroflexus [9]
  AMARE herbicidal damage score: 5
Echinochloa crus-galli [10]
  ECHCG herbicidal damage score: 5
Setaria faberi [11]
  SETFA herbicidal damage score: 5
Zea mays [12]
  ZEAMX herbicidal damage score: 4

## COC1=C(C)C(O)N(c2cc(C(C)(C)C)c(Cl)nn2)C1=O (stereo not drawn) [BI1]
Abutilon theophrasti [1]
  ABUTH damage score, application pre-emergence: 4
Alopecurus myosuroides [2]
  ALOMY damage score, application pre-emergence: 4
Amaranthus retroflexus [3]
  AMARE damage score, application pre-emergence: 3
Echinochloa crus-galli [4]
  ECHCG damage score, application pre-emergence: 5
Setaria faberi [5]
  SETFA damage score, application pre-emergence: 5
Zea mays [6]
  ZEAMX damage score, application pre-emergence: 4
Abutilon theophrasti [7]
  ABUTH herbicidal damage score: 5
Alopecurus myosuroides [8]
  ALOMY herbicidal damage score: 5
Amaranthus retroflexus [9]
  AMARE herbicidal damage score: 5
Echinochloa crus-galli [10]
  ECHCG herbicidal damage score: 5
Setaria faberi [11]
  SETFA herbicidal damage score: 5
Zea mays [12]
  ZEAMX herbicidal damage score: 4

## COC1=C(C)C(O)N(c2cc(C(C)C)c(Cl)nn2)C1=O (stereo not drawn) [BI2]
Abutilon theophrasti [1]
  ABUTH damage score, application pre-emergence: 4
Alopecurus myosuroides [2]
  ALOMY damage score, application pre-emergence: 4
Amaranthus retroflexus [3]
  AMARE damage score, application pre-emergence: 4
Echinochloa crus-galli [4]
  ECHCG damage score, application pre-emergence: 5
Setaria faberi [5]
  SETFA damage score, application pre-emergence: 5
Zea mays [6]
  ZEAMX damage score, application pre-emergence: 3
Abutilon theophrasti [7]
  ABUTH herbicidal damage score: 5
Alopecurus myosuroides [8]
  ALOMY herbicidal damage score: 5
Amaranthus retroflexus [9]
  AMARE herbicidal damage score: 5
Echinochloa crus-galli [10]
  ECHCG herbicidal damage score: 5
Setaria faberi [11]
  SETFA herbicidal damage score: 5
Zea mays [12]
  ZEAMX herbicidal damage score: 3

## COC1=C(C)C(O)N(c2cc3c(nn2)CCCC3)C1=O (stereo not drawn) [BI3]
Abutilon theophrasti [1]
  ABUTH damage score, application pre-emergence: 0
Alopecurus myosuroides [2]
  ALOMY damage score, application pre-emergence: 1
Amaranthus retroflexus [3]
  AMARE damage score, application pre-emergence: 2
Echinochloa crus-galli [4]
  ECHCG damage score, application pre-emergence: 4
Setaria faberi [5]
  SETFA damage score, application pre-emergence: 0
Zea mays [6]
  ZEAMX damage score, application pre-emergence: 0
Abutilon theophrasti [7]
  ABUTH herbicidal damage score: 2
Alopecurus myosuroides [8]
  ALOMY herbicidal damage score: 3
Amaranthus retroflexus [9]
  AMARE herbicidal damage score: 3
Echinochloa crus-galli [10]
  ECHCG herbicidal damage score: 3
Setaria faberi [11]
  SETFA herbicidal damage score: 5
Zea mays [12]
  ZEAMX herbicidal damage score: 1

## CCOC(=O)c1ccc(N2C(=O)C(OC)=C(C)C2O)nn1 (stereo not drawn) [BI4]
Abutilon theophrasti [1]
  ABUTH damage score, application pre-emergence: 0
Alopecurus myosuroides [2]
  ALOMY damage score, application pre-emergence: 0
Amaranthus retroflexus [3]
  AMARE damage score, application pre-emergence: 0
Echinochloa crus-galli [4]
  ECHCG damage score, application pre-emergence: 0
Setaria faberi [5]
  SETFA damage score, application pre-emergence: 0
Zea mays [6]
  ZEAMX damage score, application pre-emergence: 0
Abutilon theophrasti [7]
  ABUTH herbicidal damage score: 0
Alopecurus myosuroides [8]
  ALOMY herbicidal damage score: 0
Amaranthus retroflexus [9]
  AMARE herbicidal damage score: 0
Echinochloa crus-galli [10]
  ECHCG herbicidal damage score: 0
Setaria faberi [11]
  SETFA herbicidal damage score: 0
Zea mays [12]
  ZEAMX herbicidal damage score: 0

## COC1=C(C)C(O)N(c2cc(C)c(C#N)nn2)C1=O (stereo not drawn) [BI5]
Abutilon theophrasti [1]
  ABUTH damage score, application pre-emergence: 0
Alopecurus myosuroides [2]
  ALOMY damage score, application pre-emergence: 0
Amaranthus retroflexus [3]
  AMARE damage score, application pre-emergence: 0
Echinochloa crus-galli [4]
  ECHCG damage score, application pre-emergence: 0
Setaria faberi [5]
  SETFA damage score, application pre-emergence: 0
Zea mays [6]
  ZEAMX damage score, application pre-emergence: 0
Abutilon theophrasti [7]
  ABUTH herbicidal damage score: 0
Alopecurus myosuroides [8]
  ALOMY herbicidal damage score: 0
Amaranthus retroflexus [9]
  AMARE herbicidal damage score: 0
Echinochloa crus-galli [10]
  ECHCG herbicidal damage score: 0
Setaria faberi [11]
  SETFA herbicidal damage score: 0
Zea mays [12]
  ZEAMX herbicidal damage score: 0

## COC1=C(C)C(O)N(c2ccc(C(=O)NC(C)(C)C)nn2)C1=O (stereo not drawn) [BI6]
Abutilon theophrasti [1]
  ABUTH damage score, application pre-emergence: 5
Alopecurus myosuroides [2]
  ALOMY damage score, application pre-emergence: 4
Amaranthus retroflexus [3]
  AMARE damage score, application pre-emergence: 5
Echinochloa crus-galli [4]
  ECHCG damage score, application pre-emergence: 4
Setaria faberi [5]
  SETFA damage score, application pre-emergence: 5
Zea mays [6]
  ZEAMX damage score, application pre-emergence: 2
Abutilon theophrasti [7]
  ABUTH herbicidal damage score: 5
Alopecurus myosuroides [8]
  ALOMY herbicidal damage score: 4
Amaranthus retroflexus [9]
  AMARE herbicidal damage score: 5
Echinochloa crus-galli [10]
  ECHCG herbicidal damage score: 5
Setaria faberi [11]
  SETFA herbicidal damage score: 5
Zea mays [12]
  ZEAMX herbicidal damage score: 4

## COC1=C(C)C(O)N(c2ccc(C(=O)NC(C)(C)C#N)nn2)C1=O (stereo not drawn) [BI7]
Abutilon theophrasti [1]
  ABUTH damage score, application pre-emergence: 4
Alopecurus myosuroides [2]
  ALOMY damage score, application pre-emergence: 3
Amaranthus retroflexus [3]
  AMARE damage score, application pre-emergence: 5
Echinochloa crus-galli [4]
  ECHCG damage score, application pre-emergence: 3
Setaria faberi [5]
  SETFA damage score, application pre-emergence: 4
Zea mays [6]
  ZEAMX damage score, application pre-emergence: 1
Abutilon theophrasti [7]
  ABUTH herbicidal damage score: 4
Alopecurus myosuroides [8]
  ALOMY herbicidal damage score: 4
Amaranthus retroflexus [9]
  AMARE herbicidal damage score: 5
Echinochloa crus-galli [10]
  ECHCG herbicidal damage score: 4
Setaria faberi [11]
  SETFA herbicidal damage score: 5
Zea mays [12]
  ZEAMX herbicidal damage score: 2

## COC1=C(C)C(O)N(c2cc(C(F)(F)F)c(Cl)nn2)C1=O (stereo not drawn) [BI9]
Abutilon theophrasti [1]
  ABUTH damage score, application pre-emergence: 1
Alopecurus myosuroides [2]
  ALOMY damage score, application pre-emergence: 4
Amaranthus retroflexus [3]
  AMARE damage score, application pre-emergence: 5
Echinochloa crus-galli [4]
  ECHCG damage score, application pre-emergence: 4
Setaria faberi [5]
  SETFA damage score, application pre-emergence: 2
Zea mays [6]
  ZEAMX damage score, application pre-emergence: 2
Abutilon theophrasti [7]
  ABUTH herbicidal damage score: 5
Alopecurus myosuroides [8]
  ALOMY herbicidal damage score: 5
Amaranthus retroflexus [9]
  AMARE herbicidal damage score: 5
Echinochloa crus-galli [10]
  ECHCG herbicidal damage score: 5
Setaria faberi [11]
  SETFA herbicidal damage score: 5
Zea mays [12]
  ZEAMX herbicidal damage score: 4

## COC1=C(C)C(O)N(c2cc(C(C)F)c(Cl)nn2)C1=O (stereo not drawn) [BI10]
Abutilon theophrasti [1]
  ABUTH damage score, application pre-emergence: 5
Alopecurus myosuroides [2]
  ALOMY damage score, application pre-emergence: 3
Amaranthus retroflexus [3]
  AMARE damage score, application pre-emergence: 5
Echinochloa crus-galli [4]
  ECHCG damage score, application pre-emergence: 4
Setaria faberi [5]
  SETFA damage score, application pre-emergence: 2
Zea mays [6]
  ZEAMX damage score, application pre-emergence: 2
Abutilon theophrasti [7]
  ABUTH herbicidal damage score: 5
Alopecurus myosuroides [8]
  ALOMY herbicidal damage score: 4
Amaranthus retroflexus [9]
  AMARE herbicidal damage score: 5
Echinochloa crus-galli [10]
  ECHCG herbicidal damage score: 5
Setaria faberi [11]
  SETFA herbicidal damage score: 5
Zea mays [12]
  ZEAMX herbicidal damage score: 3

## COC1=C(C)C(O)N(c2cc(C(C)(C)F)c(-c3ccc(F)cc3)nn2)C1=O (stereo not drawn) [BI11]
Abutilon theophrasti [1]
  ABUTH damage score, application pre-emergence: 4
Alopecurus myosuroides [2]
  ALOMY damage score, application pre-emergence: 2
Amaranthus retroflexus [3]
  AMARE damage score, application pre-emergence: 5
Echinochloa crus-galli [4]
  ECHCG damage score, application pre-emergence: 2
Setaria faberi [5]
  SETFA damage score, application pre-emergence: 4
Zea mays [6]
  ZEAMX damage score, application pre-emergence: 2
Abutilon theophrasti [7]
  ABUTH herbicidal damage score: 4
Alopecurus myosuroides [8]
  ALOMY herbicidal damage score: 4
Amaranthus retroflexus [9]
  AMARE herbicidal damage score: 5
Echinochloa crus-galli [10]
  ECHCG herbicidal damage score: 4
Setaria faberi [11]
  SETFA herbicidal damage score: 5
Zea mays [12]
  ZEAMX herbicidal damage score: 2
